We go through 30 molecules from US20240270741A1 (Cogent Biosciences, Inc., priority 2023, published 2024).

SMILES strings stand for the structures.

Sequence of FGFR2 (P21802 399-821 limits assumed): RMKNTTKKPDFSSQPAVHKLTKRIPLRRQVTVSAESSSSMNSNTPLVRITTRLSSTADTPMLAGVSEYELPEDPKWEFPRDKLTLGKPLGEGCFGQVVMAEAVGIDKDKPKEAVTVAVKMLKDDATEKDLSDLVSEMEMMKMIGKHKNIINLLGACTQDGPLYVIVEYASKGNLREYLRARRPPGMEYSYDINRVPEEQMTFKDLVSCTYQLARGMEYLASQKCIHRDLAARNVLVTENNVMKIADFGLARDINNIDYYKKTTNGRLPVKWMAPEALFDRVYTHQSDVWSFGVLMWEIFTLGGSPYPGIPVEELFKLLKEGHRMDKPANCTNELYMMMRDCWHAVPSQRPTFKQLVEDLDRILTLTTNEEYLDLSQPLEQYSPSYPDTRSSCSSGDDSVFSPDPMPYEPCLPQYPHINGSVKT

The first test addresses FGFR2 (Homo sapiens, UniProt P21802). Put plainly: FGFR wild type enzyme assay (HTRF KinEASE-TK), FGFR2. As to conditions: Enz FGFR2 (nM). A general note: In TR-FRET formats the signal depends on donor and acceptor labels being close together.
In general, IC50 refers to the concentration that inhibits the measured activity by half. Lower therefore signals inhibition by little substance. `N#Cc1cnn2cc(-c3cnn([C@H]4CCN(CCO)C4)c3)cc(Sc3ccccn3)c12` [Example 97, (S)-6-(1-(1-(2-hydroxyethyl)pyrrolidin-3-yl)-1H-pyrazol-4-yl)-4-(pyridin-2-ylthio)pyrazolo[1,5-a]pyridine-3-carbonitrile] showed an IC50 of 4 nM. For the molecule `Cc1c(-c2cc(Sc3ccccn3)c3c(C#N)cnn3c2)cnn1C1CCN(C(=O)[C@@H]2CCCN2C)CC1` [Example 99, 6-(5-methyl-1-(1-(methyl-L-prolyl)piperidin-4-yl)-1H-pyrazol-4-yl)-4-(pyridin-2-ylthio)pyrazolo[1,5-a]pyridine-3-carbonitrile], half-maximal inhibition (IC50) was put at 5 nM. Still for that read-out and setting: in the case of `Cc1c(-c2cc(Sc3ccccc3C#N)c3c(C#N)cnn3c2)cnn1C1CCNCC1` [Example 104] it was 1 nM; in that of `Cc1c(-c2cc(Sc3ccccc3C#N)c3c(C#N)cnn3c2)cnn1[C@@H]1CCCNC1` [Example 112, 4-(2-cyanophenyl)sulfanyl-6-[5-methyl-1-[(3R)-3-piperidyl]pyrazol-4-yl]pyrazolo[1,5-a]pyridine-3-carbonitrile], 2 nM. As to `Cc1c(-c2cc(SCCOC(C)C)c3c(C#N)cnn3c2)cnn1[C@H]1CCCNC1` [Example 85, 4-(2-isopropoxyethylsulfanyl)-6-[5-methyl-1-[(3S)-3-piperidyl]pyrazol-4-yl]pyrazolo[1,5-a]pyridine-3-carbonitrile], the IC50 amounted to 7 nM. Compared with the last molecule, the IC50 is about 3.5-fold higher. On the same count and under the same terms, in the case of `N#Cc1cnn2cc(-c3cnn([C@H]4CCCN(CCO)C4)c3)cc(Sc3ccccn3)c12` [Example 91, 6-[1-[(3S)-1-(2-hydroxyethyl)-3-piperidyl]pyrazol-4-yl]-4-(2-pyridylsulfanyl)pyrazolo[1,5-a]pyridine-3-carbonitrile] it was 2 nM.

The same test, now with this note: Enz FGFR2 (nM), FGFR2 wild type enzyme.
Regarding `COCC(C)N1CCC(n2ncc(-c3cc(Sc4ncccc4F)c4c(C#N)cnn4c3)c2C)CC1` (stereo not drawn) [Example 158, 4-((3-fluoropyridin-2-yl)thio)-6-(1-(1-(1-methoxypropan-2-yl)piperidin-4-yl)-5-methyl-1H-pyrazol-4-yl)pyrazolo[1,5-a]pyridine-3-carbonitrile], the 50% inhibitory concentration (IC50) was 2 nM. This counts as single-digit nanomolar. Take `CC(=O)N1CC[C@]2(CC[C@H](n3ncc(-c4cc(Sc5ccccc5C#N)c5c(C#N)cnn5c4)c3C)CC2)C1` [Example 322, 6-(1-((5s,8s)-2-acetyl-2-azaspiro[4.5]decan-8-yl)-5-methyl-1H-pyrazol-4-yl)-4-((2-cyanophenyl)thio)pyrazolo [1,5-a]pyridine-3-carbonitrile]: the IC50 was 0.6 nM. The same measure, in the same setting: the result for `Cc1c(-c2cc(Sc3ncccc3F)c3c(C#N)cnn3c2)cnn1[C@@H]1CCNC[C@H]1O` [Example 277, 4-((3-fluoropyridin-2-yl)thio)-6-(1-((3R,4R)-3-hydroxypiperidin-4-yl)-5-methyl-1H-pyrazol-4-yl)pyrazolo[1,5-a]pyridine-3-carbonitrile] reads 15 nM; that for `Cc1c(-c2cc(Sc3ccc(F)cc3C#N)c3c(C#N)cnn3c2)cnn1[C@H]1CCCN(C(=O)CO)C1` [Example 332, (S)-4-((2-cyano-4-fluorophenyl)thio)-6-(1-(1-(2-hydroxyacetyl)piperidin-3-yl)-5-methyl-1H-pyrazol-4-yl)pyrazolo[1,5-a]pyridine-3-carbonitrile], 1 nM.

The molecule `CC(=O)N[C@H]1CC[C@H](n2ncc(-c3cc(Sc4ccc(F)cc4C#N)c4c(C#N)cnn4c3)c2C)CC1` [Example 274, N-((1r,4r)-4-(4-(3-cyano-4-((2-cyano-4-fluorophenyl)thio)pyrazolo [1,5-a]pyridin-6-yl)-5-methyl-1H-pyrazol-1-yl)cyclohexyl)acetamide] registered an IC50 of 1 nM. `CC(=O)N[C@H]1CC[C@@H](n2ncc(-c3cc(Sc4ncccc4F)c4c(C#N)cnn4c3)c2C)CC1` [Example 220, N-((1s,4S)-4-(4-(3-cyano-4-((3-fluoropyridin-2-yl)thio)pyrazolo[1,5-a]pyridin-6-yl)-5-methyl-1H-pyrazol-1-yl)cyclohexyl)acetamide] registered an IC50 of 5 nM.

`Cc1c(-c2cc(Sc3ccc(F)cn3)c3c(C#N)cnn3c2)cnn1[C@@H]1C[C@H]2CC[C@@H](C1)N2C(=O)CO` [Example 310, 4-((5-fluoropyridin-2-y)thio)-6-(1-((1R,3s,5S)-8-(2-hydroxyacetyl)-8-azabicyclo[3.2.1]octan-3-yl)-5-methyl-1H-pyrazol-4-yl)pyrazolo[1,5-a]pyridine-3-carobnitrile] came in with an IC50 of 8 nM. Compared with the last molecule, the IC50 is about 1.6-fold higher.

Take `Cc1c(-c2cc(Sc3ncccc3F)c3c(C#N)cnn3c2)cnn1C[C@H]1CC[C@@H](O)CC1` [Example 212, 4-((3-fluoropyridin-2-yl)thio)-6-(1-(((1s,4s)-4-hydroxycyclohexyl)methyl)-5-methyl-1H-pyrazol-4-yl)pyrazolo[1,5-a]pyridine-3-carbonitrile]: the IC50 is 3 nM. On the same count and under the same terms, the result for `CC(=O)N1CCC([C@@H](C)n2ncc(-c3cc(Sc4ncccc4F)c4c(C#N)cnn4c3)c2C)CC1` [Example 174, (R)-6-(1-(1-(1-acetylpiperidin-4-yl)ethyl)-5-methyl-1H-pyrazol-4-yl)-4-((3-fluoropyridin-2-yl)thio)pyrazolo[1,5-a]pyridine-3-carbonitrile] reads 4 nM.

Staying with this test, now noted: Enz FGFR2 (nM), FGFR2 wild type enzyme assay.
As to `N#Cc1ccccc1Sc1cc(-c2cnn(-c3cn[nH]c3)c2)cn2ncc(C#N)c12` [Example 609, 6-(1′H-[1,4′-bipyrazol]-4-yl)-4-((2-cyanophenyl)thio)pyrazolo [1,5-a]pyridine-3-carbonitrile], it took 4 nM to reach half-maximal inhibition (IC50).

For `Cc1c(-c2cc(Sc3ccccc3C#N)c3c(C#N)cnn3c2)cnn1C1CCN(C(=O)C(C)(C)C)CC1` [Example 437, 4-((2-cyanophenyl)thio)-6-(5-methyl-1-(1-pivaloylpiperidin-4-yl)-1H-pyrazol-4-yl)pyrazolo[1,5-a]pyridine-3-carbonitrile], 1 nM corresponded to half-maximal inhibition (IC50). `CC(C)n1cc(-c2cc(Sc3ncccc3F)c3c(C#N)cnn3c2)cn1` [Example 449, 4-((3-fluoropyridin-2-yl)thio)-6-(1-isopropyl-1H-pyrazol-4-yl)pyrazolo[1,5-a]pyridine-3-carbonitrile] registered an IC50 of 2 nM. This IC50 lies about 2-fold higher than the previous one. Regarding `CN(CCO)C(=O)Cn1cc(-c2cc(Sc3ccccc3C#N)c3c(C#N)cnn3c2)cn1` [Example 669, 2-(4-(3-cyano-4-((2-cyanophenyl)thio)pyrazolo [1,5-a]pyridin-6-yl)-1H-pyrazol-1-yl)-N-(2-hydroxyethyl)-N-methylacetamide], the midpoint of inhibition, the IC50, lay at 1 nM. This IC50 is about 2-fold lower than that of the molecule before. `CN1C[C@H](n2cc(-c3cc(Sc4ccccc4C#N)c4c(C#N)cnn4c3)cn2)CCC1=O` [Example 667, (R)-4-((2-cyanophenyl)thio)-6-(1-(1-methyl-6-oxopiperidin-3-yl)-1H-pyrazol-4-yl)pyrazolo[1,5-a]pyridine-3-carbonitrile] yielded a half-inhibitory concentration (IC50) of 1 nM.

`N#Cc1cc(F)ccc1Sc1cc(-c2ccc(NCCO)nc2)cn2ncc(C#N)c12` [Example 640, 4-((2-cyano-4-fluorophenyl)thio)-6-(6-((2-hydroxyethyl)amino)pyridin-3-yl)pyrazolo[1,5-a]pyridine-3-carbonitrile] gave an IC50 of 2.5 nM. `Cc1nc(Sc2cc(-c3cnn(C)c3)cn3ncc(C#N)c23)c(F)cc1F` [Example 615, 4-((3,5-difluoro-6-methylpyridin-2-yl)thio)-6-(1-methyl-1H-pyrazol-4-yl)pyrazolo[1,5-a]pyridine-3-carbonitrile] gave an IC50 of 2 nM. Same read-out and setting: the result for `C[C@]1(O)CC[C@@H](n2cc(-c3cc(Sc4ccccc4C#N)c4c(C#N)cnn4c3)cn2)CC1` [Example 503, 4-((2-cyanophenyl)thio)-6-(1-((1s,4s)-4-hydroxy-4-methylcyclohexyl)-1H-pyrazol-4-yl)pyrazolo[1,5-a]pyridine-3-carbonitrile] reads 0.5 nM; that for `Cc1c(-c2cc(Sc3cc(Cl)ccc3C#N)c3c(C#N)cnn3c2)cnn1C1CCN(C)CC1` [Example 358, 4-((5-chloro-2-cyanophenyl)thio)-6-(5-methyl-1-(1-methylpiperidin-4-yl)-1H-pyrazol-4-yl)pyrazolo[1,5-a]pyridine-3-carbonitrile], 2 nM; that for `Cc1cccc(Sc2cc(-c3cnn(C)c3)cn3ncc(C#N)c23)c1C#N` [Example 576, 4-((2-cyano-3-methylphenyl)thio)-6-(1-methyl-1H-pyrazol-4-yl)pyrazolo[1,5-a]pyridine-3-carbonitrile], 7 nM. `COC(=O)N1CC[C@H](n2cc(-c3cc(Sc4ccccc4C#N)c4c(C#N)cnn4c3)cn2)C1` [Example 483, methyl (S)-3-(4-(3-cyano-4-((2-cyanophenyl)thio)pyrazolo [1,5-a]pyridin-6-yl)-1H-pyrazol-1-yl)pyrrolidine-1-carboxylate] returned an IC50 of 0.5 nM.

The molecule `Cc1c(-c2cc(Sc3ccc(F)cc3C#N)c3c(C#N)cnn3c2)cnn1[C@H]1CCCN(S(C)(=O)=O)C1` [Example 402, (S)-4-((2-cyano-4-fluorophenyl)thio)-6-(5-methyl-1-(1-(methylsulfonyl)piperidin-3-yl)-1H-pyrazol-4-yl)pyrazolo[1,5-a]pyridine-3-carbonitrile] yielded an IC50 of 2 nM.

`Cc1c(-c2cc(Sc3ccc(F)cc3C#N)c3c(C#N)cnn3c2)cnn1[C@H]1CC[C@H](OC(=O)CN)CC1` [Example 636, (1r,4r)-4-(4-(3-cyano-4-((2-cyano-4-fluorophenyl)thio)pyrazolo [1,5-a]pyridin-6-yl)-5-methyl-1H-pyrazol-1-yl)cyclohexyl glycinate]: the IC50 worked out at 1 nM. `Cc1noc(Cn2cc(-c3cc(Sc4ccccc4C#N)c4c(C#N)cnn4c3)cn2)n1` [Example 374, 4-((2-cyanophenyl)thio)-6-(1-((3-methyl-1,2,4-oxadiazol-5-yl)methyl)-1H-pyrazol-4-yl)pyrazolo[1,5-a]pyridine-3-carbonitrile] yielded a half-inhibitory concentration (IC50) of 1 nM. Turning to `CC(C)n1cc(-c2cc(Sc3ccccc3C#N)c3c(C#N)cnn3c2)cn1` [Example 452, 4-((2-cyanophenyl)thio)-6-(1-isopropyl-1H-pyrazol-4-yl)pyrazolo[1,5-a]pyridine-3-carbonitrile], the 50% inhibitory concentration (IC50) is 0.6 nM.
